Several values for one entry are separate records, joined by “and”; a condition that tells them apart may be missing. Equal entries are not always repeated. Where two headings read alike, the source gives them in different places. Marks after values point to notes of the source that are not given here.
How the values were obtained:
[1] = molecular target: MATE2-K (Homo sapiens, UniProt Q86VL8); experiment: Inhibition of the MATE2-K-mediated uptake of baricitinib; type: in vitro ADME; conditions: for IC50: IC50 MATE2-K (mean), substrate 0.25 μM baricitinib, 0.5 min; for DDI index ([Iu]/IC50), MATE2-K: baricitinib as substrate
[2] = Plasma concentrations used to calculate DDI indices and R values; type: in vivo, human; conditions: estimated from published Cmax and unbound fraction
[3] = cited from earlier work; for fu (fraction unbound in plasma): ref 15 (probenecid), 16 (ibuprofen), 17, 18 (diclofenac)
[4] = cited from earlier work
[5] = Pharmacokinetic input parameters of the PBPK models; type: in vivo, human
[6] = system: OAT3; conditions: read-out: IC50 OAT3, pemetrexed as substrate, cited from earlier work
[7] = cited from earlier work; remark: listed apart in the source
[8] = cited from earlier work; remark: listed apart in the source
[9] = PBPK modeling; parameters: species or system human
[10] = Clinical baricitinib-probenecid DDI study in healthy subjects; type: in vivo, human
[11] = published mean (CV) or range, ref 45 (ibuprofen), 17 (diclofenac)

Sequence of MATE2-K (Q86VL8 1-566 isoform Q86VL8-3): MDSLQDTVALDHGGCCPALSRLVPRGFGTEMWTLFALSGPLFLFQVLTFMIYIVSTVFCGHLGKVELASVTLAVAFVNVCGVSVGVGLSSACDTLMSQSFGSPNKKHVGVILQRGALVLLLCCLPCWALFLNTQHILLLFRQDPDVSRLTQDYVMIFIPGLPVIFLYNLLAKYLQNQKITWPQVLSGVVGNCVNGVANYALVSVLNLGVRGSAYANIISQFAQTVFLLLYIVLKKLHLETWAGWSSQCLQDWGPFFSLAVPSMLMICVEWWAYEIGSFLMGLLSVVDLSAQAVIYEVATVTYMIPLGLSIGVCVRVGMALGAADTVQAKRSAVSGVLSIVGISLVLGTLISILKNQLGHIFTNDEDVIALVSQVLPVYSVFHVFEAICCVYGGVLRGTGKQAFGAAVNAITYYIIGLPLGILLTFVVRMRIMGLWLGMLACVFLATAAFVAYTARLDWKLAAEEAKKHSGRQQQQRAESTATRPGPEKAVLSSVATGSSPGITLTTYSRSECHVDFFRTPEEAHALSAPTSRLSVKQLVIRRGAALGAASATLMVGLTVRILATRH

Structure (SMILES): CN/C(=N/CCSCc1nc[nH]c1C)NC#N [Cimetidine]
- IC50 [1]: 5.1 µM
- DDI index ([Iu]/IC50), MATE2-K [1]: 1.57 and 1.6
- Cmax unbound inhibitor [Iu] [2]: 7900 nM
- plasma bound [3]: f 400 mg oral dose, 20% plasma bound.31

Structure (SMILES): O=C(O)Cc1ccccc1Nc1c(Cl)cccc1Cl [Diclofenac]
- AUC observed [4, 11]: 2.7 – 4.4 ^b μg·h/mL
- Cmax observed [4, 11]: 1.2 – 3.6 ^b μg/mL
- ka (first-order absorption rate constant) ([5]; calculated as 1/gastric emptying time): 6 h^‐1
- Clearance (i.v.) ([7]; i.v., scaled by body weight to Simcyp population): Clearance = 20 ^a (i.v.) L/h
- Cmax unbound inhibitor [Iu] [2]: 30 nM
- plasma bound [3]: d 100 mg oral dose, 99.7% bound to plasma.30
- fu (fraction unbound in plasma) [3]: 0.003

Structure (SMILES): CC(C)Cc1ccc(C(C)C(=O)O)cc1 (stereo not shown) [Ibuprofen]
- AUC observed [4, 11]: 218 (23) ^a μg·h/mL
- tlag [7]: 0.1 h
- ka (first-order absorption rate constant) ([7]; ref 22 (probenecid), 23 (ibuprofen)): 1.52 h^‐1
- LogP [8]: 4.13
- plasma bound [3]: b 800 mg oral dose, 99% plasma bound.30
- fu (fraction unbound in plasma) [3]: 0.018

Structure (SMILES): CN(Cc1cnc2nc(N)nc(N)c2n1)c1ccc(C(=O)N[C@@H](CCC(=O)O)C(=O)O)cc1 [Methotrexate]
- Cmax unbound inhibitor [Iu] [2]: 600 nM
- plasma bound [3]: e 15 mg s.c. dose, 46% plasma bound.30

Structure (SMILES): CCCN(CCC)S(=O)(=O)c1ccc(C(=O)O)cc1 [Probenecid]
- CL/F ([5]; human, plasma, po, 2000 mg/day): 12.2 mL/min
- Observed/Predicted Css,ave [9]: 1.0
- Fa (fraction absorbed) ([7]; ref 20 (probenecid), 21 (ibuprofen), 17 (diclofenac)): 1
- Inhibition of MATE2-K-mediated baricitinib transport (in words) ([1]; probenecid 0–200 μM, cimetidine, pyrimethamine 0–100 μM): did not inhibit
- Cmax unbound inhibitor [Iu] [2]: 22100 nM
- plasma bound [3]: a 1 g oral dose, 91% plasma bound.29
- tolerability ([10]; healthy subjects, all drug-related treatment-emergent AEs mild): well tolerated
- Cmax ([10]; human, plasma, oral, 1000 mg): 145 µg/mL
- Tmax ([10]; human, plasma, oral, 1000 mg b.i.d.): 2 h
- Css,ave observed ([10]; probenecid 1,000 mg BID): 115 µg/mL
- trough plasma concentration (Cmin) ([10]; probenecid 1,000 mg b.i.d.): 88 µg/mL

Structure (SMILES): CCc1nc(N)nc(N)c1-c1ccc(Cl)cc1 [Pyrimethamine]
- IC50 [1]: 0.25 µM
- DDI index ([Iu]/IC50), MATE2-K [1]: 0.5
- DDI index ([Iu]/IC50), MATE2-K ([1]; listed as pyrimethamine): 0.49
- Cmax unbound inhibitor [Iu] [2]: 100 nM
- plasma bound [3]: g 25 mg oral dose, 87% plasma bound.32

Structure (SMILES): NS(=O)(=O)c1cc(C(=O)O)c(NCc2ccco2)cc1Cl [furosemide]
- decrease of CLr by probenecid [4]: 66%

Structure (SMILES): CCOC(=O)C1=C[C@@H](OC(CC)CC)[C@H](NC(C)=O)[C@@H](N)C1 [oseltamivir]
- decrease of clearance by probenecid [4]: 32%

— PMC6402191 (Clinical and Translational Science, 2017)
